Assay results from US5399703A, “Tetrazole derivatives and drugs” (Nippon Shinyaku Company, Limited, priority 1990, dated 1995).
Where two headings read alike, the source gives them in different places.

Legend:
[1] = system: endogenous LT-induced airway contractile response in guinea pigs; test: Effect on endogenous leukotriene (LT)-induced experimental asthma; assay type: in vivo; settings: guinea pig; for ED50: Cavia porcellus
[2] = target: T1, LTD4 receptor (Cavia porcellus, UniProt Q2NNR5); test: Leukotriene D4 (LTD4) binding assay (3H-LTD4, guinea pig lung membrane fraction); settings: for IC50: guinea pig lung membrane, 3H-LTD4, 25° C., 1 hour
T1 construct: membrane fraction prepared from the guinea pig lung; from tissue; host or cells: guinea pig lung membrane fraction
T1 sequence (Q2NNR5 1-340): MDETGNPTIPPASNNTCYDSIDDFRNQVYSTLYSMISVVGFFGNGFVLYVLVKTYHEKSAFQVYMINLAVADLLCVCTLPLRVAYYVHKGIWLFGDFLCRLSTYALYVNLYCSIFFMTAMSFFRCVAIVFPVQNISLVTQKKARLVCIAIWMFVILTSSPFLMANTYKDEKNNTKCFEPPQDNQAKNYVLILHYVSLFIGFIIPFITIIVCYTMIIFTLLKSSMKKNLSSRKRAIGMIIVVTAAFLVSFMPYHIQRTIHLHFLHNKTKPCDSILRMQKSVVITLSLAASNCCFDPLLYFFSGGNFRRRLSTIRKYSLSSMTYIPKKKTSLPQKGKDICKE
Procedure: 1) Leukotriene D4 (LTD4) binding assay
First, 0.2 pmol of ^3 H-LTD4 and 100 μg of the membrane fraction prepared from the guinea pig lung were incubated at 25° C. for 1 hour and then the reaction mixture was filtered through a glass filter. The radioactivity of ^3 H-LTD4 bound to the membrane remaining on the glass filter was determined and this value was regarded as total binding (total).
Similarly, 100 μg of the membrane fraction was incubated with 0.2 pmol of ^3 H-LTD4 in the presence of a large excess of cold LTD4 (0.1 nmol) at 25° C. for 1 hour and the radioactivity of ^3 H-LTD4 bound to the membrane was determined and regarded as nonspecific binding (NSB).
Specific binding (SB) of ^3 H-LTD4 was calculated according to expression (1).
To investigate the effect of the test substance on LTD4 receptor binding, the test substance was added at the determination of total binding and the total binding in the presence of the test substance (total') was determined. The percent inhibition was calculated according to expression (2).
(total-total')/SB×100 (2)

[3] = system: antigen-induced airway contractile response in guinea pigs; test: Effect on experimental asthma (antigen-induced airway contractile response); assay type: in vivo; settings: guinea pig
Procedure: (4) Effect on experimental asthma
The airway contractile response to intravenous administration of an antigen (benzylpenicilloyl-bovine serum albumin) to guinea pigs passively senstitized with anti-benzylpenicilloyl-bovine gamma globulin guinea pig serum was determined by the Konzett-Rossler method.
The test substance suspended in 0.5% methylcellulose was administered orally and 3 hours later, the airway contractile response caused by antigen-antibody reaction was determined. With the response on complete obstruction of the airway cannula with a clamp taken as 100% contraction, the maximal airway contractile response (expressed in percent) caused by antigen antibody reaction was determined. From this value, the percent inhibition, relative to the control, by the test substance was determined.

CCCc1c(OCC(O)COc2ccc3c(=O)cc(C(=O)O)oc3c2CCC)ccc(C(C)=O)c1O (stereo not drawn) [C, reference compound]
ED50 ([1]; iv, read-out: Endogenous LT-induced experimental asthma ED50 (i.v.)): 0.2 mg/kg | IC50 [2]: 3820 nM

O=C(Nc1ccccc1Sc1ccccc1-c1nnn[nH]1)c1ccc(OCCCCc2ccccc2)cc1 [Example 4, N-[2-[2-(1H-Tetrazol-5-yl)phenylthio]phenyl]-4-(4-phenylbutoxy)benzamide]
Endogenous LT-induced experimental asthma p.o. inhibition (%) ([1]; at 30 mg/kg): 30.9% | IC50 [2]: 35.8 nM

O=C(O)COc1ccc(C(=O)Nc2ccccc2Sc2ccccc2-c2nnn[nH]2)cc1 [Example 6, 4-[2-[2-(1H-Tetrazol-5-yl)phenylthio]phenylcarbamoyl]phenoxyacetic acid]
Experimental asthma p.o. inhibition (%) ([3]; at 30 mg/kg): 37.9% | Endogenous LT-induced experimental asthma p.o. inhibition (%) ([1]; at 0.1 mg/kg): 36.2% | inhibition at 10 µM ([2]; at 10^-5 M): 28.9%

CCCCCCOc1ccc(C(=O)Nc2ccccc2Sc2ccccc2-c2nnn[nH]2)cc1 [Example 7, N-[2-[2-(1H-Tetrazol-5-yl)phenylthio]phenyl]-4-hexyloxybenzamide]
ED50 ([3]; Cavia porcellus, po, 3 hours before antigen): 3.52 mg/kg | ED50 ([1]; po, 3 hours before antigen, read-out: Endogenous LT-induced experimental asthma p.o. ED50): 0.111 mg/kg | IC50 [2]: 180 nM

CCCC/C=C/COc1ccc(C(=O)Nc2ccccc2Sc2ccccc2-c2nnn[nH]2)cc1 [Example 14, (E)-N-[2-[2-(1H-Tetrazol-5-yl)phenylthio]phenyl]-4-(2-heptenyloxy)benzamide]
Endogenous LT-induced experimental asthma p.o. inhibition (%) ([1]; at 30 mg/kg): 58.3% | IC50 [2]: 22 nM

CCCCOC(=O)COc1ccc(C(=O)Nc2ccccc2Sc2ccccc2-c2nnn[nH]2)cc1 [Example 67, Butyl 4-[2-[2-(1H-tetrazol-5-yl)phenylthio]phenylcarbamoyl]phenoxyacetate]
Experimental asthma p.o. inhibition (%) ([3]; at 10 mg/kg): 82.6% | Endogenous LT-induced experimental asthma p.o. inhibition (%) ([1]; at 0.3 mg/kg): 61.2% | IC50 [2]: 3340 nM

CCN(CC)C(=O)COC(=O)COc1ccc(C(=O)Nc2ccccc2Sc2ccccc2-c2nnn[nH]2)cc1 [Example 105, N,N-Diethylcarbamoylmethyl 4-[2-[2-(1H-tetrazol-5-yl)phenylthio]phenylcarbamoyl]phenoxyacetate]
Experimental asthma p.o. inhibition (%) ([3]; at 10 mg/kg): 87.9% | Endogenous LT-induced experimental asthma p.o. inhibition (%) ([1]; at 0.3 mg/kg): 29.4% | IC50 [2]: 18200 nM
